According to US9546362B2 (priority 2011, dated 2017):
Where two headings read alike, the source gives them in different places.

Tests used:
CsHCS2 [1] = target: T1, CsHCS2 (Cannabis sativa, UniProt A0A7J6I5X8)
Experimental: The reactions were incubated for 10 min at 40° C., terminated with 2 μL of 1 N HCl and stored on ice until analysis.
The reaction mixtures were diluted 1:100 with water and subsequently separated using a Waters Acquity UPLC system fitted with an Acquity UPLC BEH C18 column (1.7 μm particle size, 2.1×50 mm column), and analyzed by MS/MS using a Micromass Quattro Ultima triple-quadrupole mass spectrometer. The solvent system used was buffer A: 5 mM TEA and 3 mM acetic acid in water, and buffer B: 5 mM TEA and 3 mM acetic acid in 95:5 methanol:water. The mass spectrometer settings were: ESI positive mode, collision energy 27 V, cone 135 V, scanning for 866>359 transitions.

CsHCS1 [2] = target: T2, CsHCS1 (Cannabis sativa, UniProt H9A1V3, DEL715-715); test: biochemical
CsHCS2 [3] = target: T1, CsHCS2; test: Kinetic properties, separate experiment (Table 5); assay type: biochemical
CsHCS1 [4] = target: T2, CsHCS1; test: Hexanoyl-CoA synthetase activity (LC-MS/MS); assay type: biochemical; parameters: His8 (pHIS8/GW vector) (N); made in house; host or cells: E. coli Rosetta 2
CsHCS1 [5] = target: T2, CsHCS1; conditions: CsHCS1, Table 5
CsHCS2 [6] = target: T1, CsHCS2; test: Carboxylic acid substrate range, luciferin/luciferase measurement of unconsumed ATP; assay type: biochemical; conditions: CsHCS2, 500 μM carboxylic acid, 50 μM ATP, 3 h at 29° C., FIG. 3B
Experimental: (§1) To test the range of carboxylic acids that CsHCS1 and CsHCS2 can activate, enzyme assays were performed with a broad range of carboxylic acids and limiting ATP. The assay conditions used were similar to Schneider K et al. (2005). A new type of peroxisomal acyl-coenzyme A synthetase from Arabidopsis thaliana has the catalytic capacity to activate biosynthetic precursors of jasmonic acid. The Journal of Biological Chemistry, 280:13962-72. […] All carboxylic acid substrates were dissolved in 2% v/v Triton™ X-100, leading to a final concentration 0.05% Triton X-100 in the assay. After reacting for 3 h at 29° C., 10 μL aliquots of the reactions were transferred to 96-well plates for a luciferin/luciferase based measurement of unconsumed ATP. The plates were analyzed with a 1420 Multilabel counter (PerkinElmer). To each well, 90 μL of a solution containing 100 mM Tris pH 7.8, 1 mM MgCl2, 2.3 μg luciferin, and 0.5 μg of luciferase was injected, and after shaking for 2 seconds the luminescence was measured for 15 seconds without a filter in place. Lower readings, compared to the reactions with no carboxylic acid substrate, indicate a higher amount of enzymatic activity and therefore substrate utilization. The results are shown in FIG. 3, wherein error bars represent the percent error of the ratio, n=3.

CsHCS1 [7] = target: T2, CsHCS1; test: as above; assay type: biochemical; parameters: His8 (pHIS8/GW vector) (N); made in house; host or cells: E. coli Rosetta 2; conditions: CsHCS1, 500 μM carboxylic acid, 50 μM ATP, 3 h at 29° C., FIG. 3A
Experimental: as §1

CCCCCC(=O)O [8] = test: purified protein, by the assay type; assay type: biochemical, Cannabis sativa; conditions: other: CsHCS1, substrate hexanoate; pH 9.0; 40.0 °C
CCCCCCCCCC(=O)O = test: purified protein, by the assay type; conditions: other: CsHCS1, Table 5
CCCCCC(=O)O [9] = test: purified protein, by the assay type; conditions: other: CsHCS1, Table 5
[10] = tested on: CC(C)(COP(=O)(O)OP(=O)(O)OC[C@H]1O[C@@H](n2cnc3c(N)ncnc32)[C@H](O)[C@@H]1OP(=O)(O)O)[C@@H](O)C(=O)NCCC(=O)NCCS; test: purified protein, by the assay type
[11] = tested on: olivetolic acid synthesis; test: Coupled enzymatic assay for olivetolic acid synthesis (CsHCS2, MCS, olivetol synthase/PKS, OAS); assay type: biochemical, Cannabis sativa; conditions: 0.3 μg CsHCS2, 4 mM hexanoate, room temperature, 16 h, FIG. 4
Experimental: Eluted compounds were detected by absorbance at 263 nm and identified both by having the same retention times as isolated standards, and by their mass using a single quadrapole mass detector. […] HTAL=hexanoyltriacetic lactone, PDAL=pentyldiacetic lactone, OA=olivetolic acid, OL=olivetol.
The reaction was incubated at room temperature for 16 h, acidified and extracted in ethyl acetate. The polar fraction was recovered, evaporated to dryness and resuspended in 50 μL of methanol. An aliquot (5 μL) was analyzed by LCMS, and products were identified by their retention times and masses (see FIG. 4).

T1 sequence (A0A7J6I5X8 entry or part of it): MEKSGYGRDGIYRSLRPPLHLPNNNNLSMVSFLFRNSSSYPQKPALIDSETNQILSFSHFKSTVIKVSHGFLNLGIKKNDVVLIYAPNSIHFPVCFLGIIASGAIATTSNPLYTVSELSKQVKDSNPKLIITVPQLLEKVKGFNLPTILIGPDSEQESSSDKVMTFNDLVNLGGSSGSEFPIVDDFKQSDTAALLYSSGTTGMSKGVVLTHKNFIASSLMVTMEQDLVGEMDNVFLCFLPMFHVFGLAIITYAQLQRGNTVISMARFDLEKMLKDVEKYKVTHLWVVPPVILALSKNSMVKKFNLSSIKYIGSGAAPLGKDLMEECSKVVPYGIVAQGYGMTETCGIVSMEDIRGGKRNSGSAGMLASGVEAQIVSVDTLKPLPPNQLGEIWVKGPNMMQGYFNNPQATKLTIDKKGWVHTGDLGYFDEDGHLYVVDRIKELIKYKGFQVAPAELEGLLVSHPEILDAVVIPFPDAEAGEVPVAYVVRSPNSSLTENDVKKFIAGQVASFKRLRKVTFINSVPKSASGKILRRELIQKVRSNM

## [Ca+2] [Ca^2+]
CsHCS2 [1]
  activity with divalent cation: to a lesser extent

## CC(C)(COP(=O)(O)OP(=O)(O)OC[C@H]1O[C@@H](n2cnc3c(N)ncnc32)[C@H](O)[C@@H]1OP(=O)(O)O)[C@@H](O)C(=O)NCCC(=O)NCCS [CoA, coenzyme A]
CsHCS1 [2]
  Ki: 5100 ± 1800 µM
CsHCS2 [3]
  inhibition of CsHCS2: did not inhibit

## [Co+2] [Co^2+]
CsHCS2 [1]
  activity with divalent cation: highest

## [Mg+2] [Mg^2+]
CsHCS2 [1]
  activity with divalent cation: high
CsHCS1 [4]; CsHCS1, range of divalent cations tested
  use of divalent cation: optimally used

## [Mn+2] [Mn^2+]
CsHCS2 [1]
  activity with divalent cation: high

## CCCC(=O)O [butanoate]
CsHCS1 [5]
  Km: > 10 mM
CsHCS2 [3]; read-out: Km
  Km: > 10 mM

## O=C(O)/C=C/c1ccccc1 [cinnamate]
CsHCS2 [6]
  utilization as substrate: able to utilize

## CCCCCCCCCC(=O)O [decanoate]
CsHCS2 [3]
  Ki: 121 ± 47.9 µM
CsHCS2 [3]; CsHCS2, Table 5
  Km: 0.0161 ± 0.0058 mM

## CCCCCCCC(=O)O [octanoate]
CsHCS1 [7]
  utilization as substrate: utilize

## O=C(O)/C=C/c1ccc(O)cc1 [p-coumarate]
CsHCS2 [6]
  utilization as substrate: to a lesser extent

## CCCCC(=O)O [valerate]
CsHCS1 [7]
  utilization as substrate: to a lesser extent

## CsHCS1 (Cannabis sativa; DEL715-715)
CCCCCC(=O)O [8]
  Km: 6.1 ± 1.0 mM
  Vmax: 15.6±1.7 pKat
  kcat: 4.5 s⁻¹
CCCCCCCCCC(=O)O
  Km: 1.7 ± 0.2 mM mM
CCCCCC(=O)O [9]
  Km: 3.7 ± 0.7 mM mM
[10]; other: CsHCS1, Table 5
  Km: 0.26 ± 0.05 μM μM

## CsHCS2 (Cannabis sativa)
[10]; other: CsHCS2, Table 5
  Km: 0.16 ± 0.01 μM μM

## CsHCS2: Cannabis sativa hexanoyl-CoA synthetase 2, alkanoyl-CoA synthetase, SEQ ID NO: 4
CsHCS2 [1]
  pH optimum: 9
  temperature optimum: 40 °C
[11]
  supply of hexanoyl-CoA for olivetolic acid synthesis: capable of providing sufficient hexanoyl-CoA substrate for the synthesis of olivetolic acid

B1: CsHCS1: Cannabis sativa hexanoyl-CoA synthetase 1, alkanoyl-CoA synthetase, SEQ ID NO: 2 (protein, listed as Cannabis sativa)
chain: MGKNYKSLDSVVASDFIALGITSEVAETLHGRLAEIVCNYGAATPQTWINIANHILSPDLPFSLHQMLFYGCYKDFGPAPPAWIPDPEKVKSTNLGALLEKRGKEFLGVKYKDPISSFSHFQEFSVRNPEVYWRTVLMDEMKISFSKDPECILRRDDINNPGGSEWLPGGYLNSAKNCLNVNSNKKLNDTMIVWRDEGNDDLPLNKLTLDQLRKRVWLVGYALEEMGLEKGCAIAIDMPMHVDAVVIYLAIVLAGYVVVSIADSFSAPEISTRLRLSKAKAIFTQDHIIRGKKRIPLYSRVVEAKSPMAIVIPCSGSNIGAELRDGDISWDYFLERAKEFKNCEFTAREQPVDAYTNILFSSGTTGEPKAIPWTQATPLKAAADGWSHLDIRKGDVIVWPTNLGWMMGPWLVYASLLNGASIALYNGSPLVSGFAKFVQDAKVTMLGVVPSIVRSWKSTNCVSGYDWSTIRCFSSSGEASNVDEYLWLMGRANYKPVIEMCGGTEIGGAFSAGSFLQAQSLSSFSSQCMGCTLYILDKNGYPMPKNKPGIGELALGPVMFGASKTLLNGNHHDVYFKGMPTLNGEVLRRHGDIFELTSNGYYHAHGRADDTMNIGGIKISSIEIERVCNEVDDRVFETTAIGVPPLGGGPEQLVIFFVLKDSNDTTIDLNQLRLSFNLGLQKKLNPLFKVTRVVPLSSLPRTATNKIMRRVLRQFSHFE
CsHCS1 [4]; enzyme CsHCS1
  pH optimum: 9
  temperature optimum: 40 °C
